In patent US20230303540A1 (Merck Sharp & Dohme LLC, priority 2020, published 2023):

Molecular target: GST-tagged truncated human mutant G2019S LRRK2 (Homo sapiens, UniProt Q5S007, G2019S)
Experiment: LRRK2 G2019S Km ATP LanthaScreen assay
Type: biochemical
Conditions: 134 μM ATP (Km ATP), LRRKtide substrate, mean IC50 values; read-out: LRRK2 pIC50 (converted)
Method in brief: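 Compound preincubated 15 min at room temperature with enzyme in pH 8.5 Tris buffer (10 mM MgCl2). Then a 90 min reaction at ambient temperature with 134 μM (Km) ATP and fluorescein-LRRKtide. EDTA stop, Tb anti-phospho antibody TR-FRET; […]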

SMILES | IC50 [nM]
CC1(N2CCN(c3cc4nc(Nc5cnn(CC6CC6)c5Cl)ncc4cc3Cl)CC2)COC1 [Ex-4.48, 6-chloro-N-[5-chloro-1-(cyclopropylmethyl)-1H-pyrazol-4-yl]-7-[4-(3-methyloxetan-3-yl)piperazin-1-yl]quinazolin-2-amine] | 0.625
CC1(N2CCN(c3cc4nc(Nc5ccnn5C(C)(C)C)ncc4cc3Cl)CC2)COCC1O (single isomer, unassigned) [Ex-6.48, (3S,4S) or (3R,4R) 4-(4-(2-((1-(tert-butyl)-1H-pyrazol-5-yl)amino)-6-chloroquinazolin-7-yl)piperazin-1-yl)-4-methyltetrahydrofuran-3-ol] | 11.4
CCn1ncc(Nc2ncc3ccc(N4C(=O)CCC4C)cc3n2)c1C (single isomer, unassigned) [Ex-7.17, (R) or (S) 1-{2-[(1-ethyl-5-methyl-1H-pyrazol-4-yl)amino]quinazolin-7-yl}-5-methylpyrrolidin-2-one] | 54.9
CC1(N2CCN(c3cc4nc(Nc5cnn(C(C)(C)C)c5Cl)ncc4cc3Cl)CC2)COC1 [Ex-4.31, N-(1-tert-butyl-5-chloro-1H-pyrazol-4-yl)-6-chloro-7-[4-(3-methyloxetan-3-yl)piperazin-1-yl]quinazolin-2-amine] | 1.01
CC1(N2CCN(c3cc4nc(Nc5cnn(C6CC6(F)F)c5Cl)ncc4cc3Cl)CC2)COC1 (single isomer, unassigned) [Ex-4.61, 6-chloro-N-[5-chloro-1-(2,2-(R) or (S)difluorocyclopropyl)-1H-pyrazol-4-yl]-7-[4-(3-methyloxetan-3-yl)piperazin-1-yl]quinazolin-2-amine] | 7.3
OC1CN(C2CCN(c3cc4nc(Nc5cnn(C6CC6)c5Cl)ncc4cc3Cl)CC2)C1 [Ex-1.37, 1-(1-{6-chloro-2-[(5-chloro-1-cyclopropyl-1H-pyrazol-4-yl)amino]quinazolin-7-yl}piperidin-4-yl)azetidin-3-ol] | 1.71
Cc1c(Nc2ncc3cc(Cl)c(N4CCN(C5COCC5O)CC4)cc3n2)cnn1C(F)F (single isomer, unassigned) [Ex-13.6, (3S,4S) or (3R,4R)-4-(4-(6-chloro-2-((1-(difluoromethyl)-5-methyl-1H-pyrazol-4-yl)amino)quinazolin-7-yl)piperazin-1-yl)tetrahydrofuran-3-ol] | 0.668
OC1C2CC1CN(c1cc3nc(Nc4cnn(C5CC5)c4Cl)ncc3cc1Cl)C2 (stereo not drawn) [Ex-1.35, 3-{6-chloro-2-[(5-chloro-1-cyclopropyl-1H-pyrazol-4-yl)amino]quinazolin-7-yl}-3-azabicyclo[3.1.1]heptan-6-ol] | 3.48
Cc1cc2cnc(Nc3cnn(C4CC4(F)F)c3Cl)nc2cc1N1CCN(C2(C)COCC2O)CC1 (single isomer, unassigned) [Ex-5.5, (3S,4S) or (3R,4R) 4-(4-(2-((5-chloro-1-(2,2-(R) or (S)difluorocyclopropyl)-1H-pyrazol-4-yl)amino)-6-methylquinazolin-7-yl)piperazin-1-yl)-4-methyltetrahydrofuran-3-ol] | 0.42
OC1COCC12CCN(c1cc3nc(Nc4cnn(C5CC5(F)F)c4Cl)ncc3cc1Cl)CC2 (single isomer, unassigned) [Ex-3.57] | 23.1
Cc1c(Nc2ncc3cc(Cl)c(N4CCC(O)CC4)cc3n2)cnn1C1CC1 [Ex-3.14, 1-{6-chloro-2-[(1-cyclopropyl-5-methyl-1H-pyrazol-4-yl)amino]quinazolin-7-yl}piperidin-4-ol] | 0.106
CN1CCC2(CCN(c3cc4nc(Nc5cnn(CC(C)(C)O)c5Cl)ncc4cc3Cl)C2)C1 (stereo not drawn) [Ex-1.13, 1-(5-chloro-4-{[6-chloro-7-(7-methyl-2,7-diazaspiro[4.4]nonan-2-yl)quinazolin-2-yl]amino}-1H-pyrazol-1-yl)-2-methylpropan-2-ol] | 21
